Data reported in ChEMBL document CHEMBL5727708, “Spiro-condensed pyrrolidine derivatives as deubiquitylating enzymes (DUB) inhibitors” (2020).
pIC50: −log10 of the molar value.

Target: T1, OTU domain-containing protein 7B (Homo sapiens, UniProt Q6GQQ9)
T1 sequence (Q6GQQ9 whole entry): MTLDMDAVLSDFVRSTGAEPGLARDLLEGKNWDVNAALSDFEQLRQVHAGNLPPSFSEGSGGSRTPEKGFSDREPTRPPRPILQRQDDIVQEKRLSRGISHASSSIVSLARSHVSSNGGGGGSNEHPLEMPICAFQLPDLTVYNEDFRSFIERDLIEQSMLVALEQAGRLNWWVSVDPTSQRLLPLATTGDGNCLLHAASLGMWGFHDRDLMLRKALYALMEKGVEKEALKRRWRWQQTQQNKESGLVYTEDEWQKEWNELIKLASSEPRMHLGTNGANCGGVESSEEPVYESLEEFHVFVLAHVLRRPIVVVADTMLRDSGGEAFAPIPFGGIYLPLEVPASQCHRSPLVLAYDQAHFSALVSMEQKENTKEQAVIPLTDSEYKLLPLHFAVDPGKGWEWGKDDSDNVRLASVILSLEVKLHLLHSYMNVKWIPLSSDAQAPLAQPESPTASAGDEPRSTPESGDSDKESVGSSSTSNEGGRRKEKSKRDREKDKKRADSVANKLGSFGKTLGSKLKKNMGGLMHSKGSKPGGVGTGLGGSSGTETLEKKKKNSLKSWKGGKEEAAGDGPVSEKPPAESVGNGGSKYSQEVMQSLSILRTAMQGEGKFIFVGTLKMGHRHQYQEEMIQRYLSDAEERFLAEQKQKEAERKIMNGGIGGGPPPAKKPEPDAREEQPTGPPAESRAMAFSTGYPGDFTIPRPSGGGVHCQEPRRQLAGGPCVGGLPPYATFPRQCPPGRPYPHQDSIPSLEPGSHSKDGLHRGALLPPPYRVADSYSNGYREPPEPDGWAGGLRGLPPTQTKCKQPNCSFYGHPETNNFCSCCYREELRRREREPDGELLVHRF
Assay: Biochemical Assay: Dilution plates were prepared at 21 times the final concentration (2100 μM for a final concentration of 100 μM) in 50% DMSO in a 96-well polypropylene V-bottom plate (Greiner #651201). A typical 8-point dilution series to be 100, 30, 10, 3, 1, 0.3, 0.1, 0.03 μM final. Reactions were performed in duplicate in black 384 well plates (small volume, Greiner 784076) in a final reaction volume of 21 μl. Either 1 μl of 50% DMSO or diluted compound was added to the plate. Cezanne 1 was diluted in reaction buffer (40 mM Tris, pH 7.5, 0.005% Tween 20, 0.5 mg/ml BSA, 5 mM-beta-mercaptoethanol) to the equivalent of 0.005 μl/well and 10 μl of diluted Cezanne 1 was added to the compound. Enzyme and compound were incubated for 30 min at room temp. Reactions were initiated by the addition of 50 nM of TAMRA labelled peptide linked to ubiquitin via an iso-peptide bond as fluorescence polarisation substrate. Reactions were read immediately after addition of substrate and following a 2 hr incubation at room temperature. Readings were performed on a Pherastar Plus. λ Excitation 540 nm; λ Emission 590 nm.

pIC50: > 7.00
Structure (SMILES): Cc1ccc2[nH]ncc2c1-c1cnc2c(c1)NC(=O)C1(CCN(C#N)C1)N2 (stereo unspecified)
